# According to publication PMC5319980, “Mutant Analysis Reveals Allosteric Regulation of ClpB Disaggregase” (Frontiers in Molecular Biosciences, 2017):
# Assays:
# ClpB [1] = target: T1, ClpB (Escherichia coli, UniProt P63284); experiment: biochemical; design: competition titration of nucleotide against preformed ClpB-mantADP complex, mantADP fluorescence; conditions: competition with 1.25 uM mantADP; read-out: Knuc (WT)
# T1 construct: ClpB wild type
# Protocol: with F: observed fluorescence; F0: starting fluorescence without nucleotide; F1: maximum fluorescence observed; [ATP]: concentration of ADP/ATPγS (μM); Ki,app: apparent dissociation constant. with Ki,app: apparent dissociation constant; Ki: dissociation constant; [mantADP]: mantADP concentration (μM); Kd (mantADP): dissociation constant of mantADP. […] ClpB WT and mutants were incubated for 5 min at 25°C in presence of 2 mM ATPγS. Crosslinking reactions were started by addition of glutaraldehyde and proceeded for 2 and 10 min. Crosslinking products were separated by SDS-PAGE, followed by Sypro-Ruby staining. Supplementary Figure 2 Nucleotide binding properties of ClpB wild type. (A)1,5 µM mantADP was incubated with increasing concentrations of ClpB wild type and derivatives and the increase in mantADP fluorescence was determined. The fluorescence intensity of mantADP in absence of ClpB proteins was set at 1. Determined dissociation constants (Kd) are given. (B) Increasing nucleotide concentrations (ADP, ATPγS) were added to a preformed ClpB-mantADP complex (1,25 µM MANTADP, 1,25 µM ClpB WT or derivatives). Determined dissociation constants (Kd) are given.
# ClpB [2] = target: T1, ClpB; experiment: NADH-coupled ATPase assay with purified ClpB, without and with casein; format: biochemical
# ClpB [3] = target: ClpB (Escherichia coli, UniProt P63284, K476C); experiment: equilibrium fluorescence titration of mantADP with ClpB; format: binding
# ClpB (Escherichia coli, UniProt P63284, K476C), sequence (P63284 whole entry K476C, looked up): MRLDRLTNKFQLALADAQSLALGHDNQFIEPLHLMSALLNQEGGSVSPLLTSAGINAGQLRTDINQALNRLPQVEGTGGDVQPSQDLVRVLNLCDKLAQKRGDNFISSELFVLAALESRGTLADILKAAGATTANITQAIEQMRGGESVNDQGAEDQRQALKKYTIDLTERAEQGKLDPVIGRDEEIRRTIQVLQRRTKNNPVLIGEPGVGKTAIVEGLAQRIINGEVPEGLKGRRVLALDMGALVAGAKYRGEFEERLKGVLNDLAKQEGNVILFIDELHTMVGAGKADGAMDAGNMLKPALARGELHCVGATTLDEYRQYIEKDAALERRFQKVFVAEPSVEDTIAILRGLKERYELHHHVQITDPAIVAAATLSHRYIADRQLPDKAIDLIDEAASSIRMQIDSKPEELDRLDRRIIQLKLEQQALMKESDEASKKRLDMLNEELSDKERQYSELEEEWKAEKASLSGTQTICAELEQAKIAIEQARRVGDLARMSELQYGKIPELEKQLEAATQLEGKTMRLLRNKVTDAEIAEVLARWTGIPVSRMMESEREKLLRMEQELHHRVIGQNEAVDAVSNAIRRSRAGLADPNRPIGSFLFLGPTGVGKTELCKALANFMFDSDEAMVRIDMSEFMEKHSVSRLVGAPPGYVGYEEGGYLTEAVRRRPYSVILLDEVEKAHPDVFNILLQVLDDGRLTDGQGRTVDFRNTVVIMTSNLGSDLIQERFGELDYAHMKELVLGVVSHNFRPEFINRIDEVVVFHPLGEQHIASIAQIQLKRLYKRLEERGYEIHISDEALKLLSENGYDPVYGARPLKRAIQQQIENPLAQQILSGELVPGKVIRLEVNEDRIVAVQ
# ClpB [4] = target: ClpB (Escherichia coli, UniProt P63284, A328V); experiment: as above; format: binding
# ClpB (Escherichia coli, UniProt P63284, A328V), sequence (P63284 whole entry A328V): as the sequence (P63284 whole entry K476C, looked up) above, with A328V, C476K counted along it
# ClpB [5] = target: T1, ClpB; experiment: as above; format: binding
# T1 sequence (P63284 whole entry): as the sequence (P63284 whole entry K476C, looked up) above, with C476K counted along it
compound,measurement,setting,value
Nc1ncnc2c1ncn2[C@@H]1O[C@H](COP(=O)(O)OP(=O)(O)O)[C@@H](O)[C@H]1O [ADP],Kd,ClpB [1],7600 nM
Nc1ncnc2c1ncn2[C@@H]1O[C@H](COP(=O)(O)OP(=O)(O)OP(=O)(O)O)[C@@H](O)[C@H]1O [ATP],"NADH-coupled ATPase assay with purified ClpB, without and with casein",ClpB [2],ATPase activities of ClpB wild type (WT) and indicated ClpB mutants were determined in absence (−) and presence (+)
Nc1ncnc2c1ncn2[C@@H]1O[C@H](CO[P@](=O)(O)O[P@](=O)(O)O[P@@](=O)(O)S)[C@@H](O)[C@H]1O [ATPγS],Kd,ClpB [1],8100 nM
mantADP,Kd,ClpB [3],250 nM
same,Kd,ClpB [4],510 nM
same,Kd,ClpB [5],230 nM
